Experimental data as given in paper PMC7311426, “An amphipathic peptide with antibiotic activity against multidrug-resistant Gram-negative bacteria” (Nature Communications, 2020).
≈ marks a conversion by molar mass, not a printed value. Where two headings read alike, the source gives them in different places. Residues, ends and D or L forms follow the SMILES beside them.

What was measured:
[1] = tested on: E. coli; design: method as in Hasman H, et al. Euro. Surveill. (2015) 20:49; conditions: E. coli ESBL20150072, mcr-1 pos; ESBL; CAMHB; comparator antibiotics; ref Hasman H, et al. Euro. Surveill. (2015) 20:49; cited from earlier work
[2] = tested on: E. coli ATCC 25922; type: cell-based, Escherichia coli
[3] = tested on: A. baumannii ATCC 19636; experiment: microbe, parasite or virus in culture; type: cell-based, Acinetobacter baumannii; conditions: for MIC: Acinetobacter baumannii, ATCC19636, read-out: MIC, Survanta (5%)
[4] = tested on: E. coli ATCC 25922; experiment: microbe, parasite or virus in culture; type: cell-based, Escherichia coli; design: MIC, Survanta (5%) replicates: unit not given beside the values; conditions: for MIC, Survanta (5%) replicates: BMD with 5% Survanta lung surfactant; for MIC: Escherichia coli
Method in brief: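 Broth microdilution MIC in Mueller Hinton broth, 12-point 2-fold series from 128 or 64 down to 0.06 or 0.03 μg mL^−1, 5 × 10^5 CFU mL^−1 inoculum. Read visually after 18-20 h at 37 °C without shaking; n ≥ 6. Additional tests in CAMHB, and in MHB with 1% agarose.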

[5] = tested on: L. monocytogenes; experiment: microbe, parasite or virus in culture; conditions: for MIC: Listeria monocytogenes, ATCC19112, read-out: BMD MIC
Method in brief: (§1)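 Broth microdilution in MHB, 2-fold 12-point series from 128 or 64 down to 0.06 or 0.03 μg mL^−1, 5 × 10^5 CFU mL^−1. Extra runs in CAMHB per CLSI and in MHB with 1% agarose; n ≥ 6.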

[6] = tested on: E. coli (AID#172 & ATCC 25922); experiment: microbe, parasite or virus in culture; type: cell-based, Escherichia coli; conditions: for MIC: Escherichia coli
Method: The test media was cation-adjusted MHB (CAMHB, Becton Dickinson) supplemented with 2% Noble Agar (Becton Dickinson) and additionally for AA139 with 0.1% BSA. The agar dilution MIC values were determined as recommended by Clinical and Laboratory Standards Institute (CLSI)[47]. […] The inoculum for the spontaneous mutation plates targeted 10^9 to 10^10 colony-forming units (CFU) per plate. The viable count of each suspension was determined by plating serial ten-fold dilutions onto MHB/NA in duplicate. In addition, agar plates without drug were inoculated as positive controls. Plates were inspected for growth at both 24 and 48 h. Colony counts were determined manually. Using the counts at 48 h, the spontaneous mutation frequency was calculated using the following equation: (average number of colonies from duplicate selection plates)/(total number of cells inoculated onto each plate). If there were no colonies on the antibiotic selection plates, the spontaneous mutation frequency was reported as less than the frequency observed with one colony to indicate that the spontaneous mutation frequency was less than the limit of detection (one CFU).

[7] = tested on: B. subtilis; experiment: microbe, parasite or virus in culture; conditions: for MIC: Bacillus subtilis
Method in brief: as §1

[8] = E. coli ATCC 25922, FDA control strain, BMD with 5% Survanta lung surfactant, mode, or median where no mode, n=4 to 6, where n=2 differs the higher value
[9] = A. baumannii ATCC 19636, type strain, BMD with 5% Survanta lung surfactant, mode, or median where no mode, n=4 to 6, where n=2 differs the higher value
[10] = A. baumannii ATCC 19636, type strain, BMD with 5% Survanta lung surfactant, replicate 2
[11] = A. baumannii ATCC 19636, type strain, BMD with 5% Survanta lung surfactant, replicate 3
[12] = A. baumannii ATCC 19636, type strain, BMD with 5% Survanta lung surfactant, replicate 4
[13] = A. baumannii ATCC 19636 type strain, n=2 to 6, mode or median
[14] = E. coli ATCC 25922, FDA control strain, replicate 1
[15] = E. coli ATCC 25922, FDA control strain, replicate 2
[16] = E. coli ATCC 25922, FDA control strain, replicate 3
[17] = E. coli ATCC 25922, FDA control strain, replicate 4
[18] = E. coli ATCC 25922, FDA control strain, BMD with 50% human serum, mode, or median where no mode, n=4 to 6, where n=2 differs the higher value
[19] = E. coli ATCC 25922, FDA control strain, BMD with 50% human serum, replicate 1
[20] = E. coli ATCC 25922, FDA control strain, BMD with 50% human serum, replicate 2
[21] = E. coli ATCC 25922, FDA control strain, BMD with 50% human serum, replicate 3
[22] = E. coli ATCC 25922, FDA control strain, BMD with 50% human serum, replicate 4
[23] = ATCC25922, read-out: MIC, SURVANTA (5%), E. coli ATCC 25922, MHB + 5% (v/v) lung surfactant, n=2 to 6, mode or median
[24] = A. baumannii ATCC 19636, type strain, BMD with 5% Survanta lung surfactant, replicate 1
[25] = L. monocytogenes ATCC 19112, MHB, mode of 6 replicates

Compound	BMD MIC [1] [µg/mL]	MIC, Survanta (5%) [2, 8]	MIC, Survanta (5%) [3, 9]	MIC, Survanta (5%) replicates [3, 10]	MIC, Survanta (5%) replicates [3, 11]	MIC, Survanta (5%) replicates [3, 12]	MIC, Survanta (5%) replicates [4, 14]	MIC, Survanta (5%) replicates [4, 15]	MIC, Survanta (5%) replicates [4, 16]	MIC, Survanta (5%) replicates [4, 17]	MIC, Serum (50%) [4, 18]	MIC, Serum (50%) replicates [4, 19]	MIC, Serum (50%) replicates [4, 20]	MIC, Serum (50%) replicates [4, 21]	MIC, Serum (50%) replicates [4, 22]	also measured
O=C(O)c1cn(C2CC2)c2cc(N3CCNCC3)c(F)cc2c1=O [Ciprofloxacin, ciprofloxacin]	>2	≤0.03	1	1	1	1	≤0.03	≤0.03	≤0.03	≤0.03	≤0.03	≤0.03	≤0.03	≤0.03	≤0.03	MIC [3, 13]: 1 µg/mL (≈ 3.02 µM); MIC [4, 23]: ≤ 0.03 µg/mL
colistin	>4	≤0.06	0.125	0.25	0.06	0.06	0.06	0.06	≤0.03	≤0.03	≤0.03	≤0.03	≤0.03	0.125	0.063	MIC, Survanta (5%) ([2]; E. coli ATCC 25922, MHB + 5% (v/v) lung surfactant, n=2 to 6, mode or median): ≤ 0.06 µg/mL; MIC, Survanta (5%) replicates [3, 24]: 0.5; MIC, Serum (50%) ([3]; A. baumannii ATCC 19636, type strain, BMD with 50% human serum, mode, or median where no mode, n=4 to 6, where n=2 differs the higher value): ≤0.031; MIC, Serum (50%) replicates ([3]; A. baumannii ATCC 19636, type strain, BMD with 50% human serum, replicate 1): ≤0.031; MIC, Serum (50%) replicates ([3]; A. baumannii ATCC 19636, type strain, BMD with 50% human serum, replicate 2): ≤0.031; MIC, Serum (50%) replicates ([3]; A. baumannii ATCC 19636, type strain, BMD with 50% human serum, replicate 3): ≤0.031; MIC, Serum (50%) replicates ([3]; A. baumannii ATCC 19636, type strain, BMD with 50% human serum, replicate 4): ≤0.031; MIC, Serum (50%) [3, 13]: ≤ 0.031 µg/mL; MIC, Survanta (5%) [3, 13]: 0.125 µg/mL; BMD MIC [5, 25]: 16 µg/mL; MIC, Serum (50%) replicates ([4]; E. coli ATCC 25922, FDA control strain, BMD with 50% human serum, replicate 5): ≤0.03; MIC, Serum (50%) replicates ([4]; E. coli ATCC 25922, FDA control strain, BMD with 50% human serum, replicate 6): ≤0.03; MIC, Serum (50%) ([4]; E. coli ATCC 25922, MHB + 50% (v/v) human serum, n=2 to 6, mode or median): ≤ 0.03 µg/mL; Noble agar dilution MIC ([6]; E. coli AID#172): 1 µg/mL; Spontaneous frequency of resistance at 4× MIC ([6]; E. coli AID#172, counts at 48 h, >TC = colonies too numerous to count): >TC; Agar (Noble) Dilution MIC ([6]; E. coli ATCC 25922): 1 µg/mL; Noble agar dilution MIC ([6]; E. coli ATCC 25922): 1 µg/mL
C[C@@H](O)[C@H]1C(=O)N2C(C(=O)O)=C(S[C@@H]3CN[C@H](C(=O)N(C)C)C3)[C@H](C)[C@H]12 [Meropenem, meropenem, reference compound]	≤1	–	–	–	–	–	–	–	–	–	–	–	–	–	–	MIC [5]: 0.5 µg/mL (≈ 1.3 µM)
CNC(C)C1CCC(N)C(OC2C(N)CC(N)C(OC3OCC(C)(O)C(NC)C3O)C2O)O1 (stereo not shown) [Gentamicin, gentamicin, reference compound]	>8	–	–	–	–	–	–	–	–	–	–	–	–	–	–	MIC ([7]; ATCC6051 / NRS744, read-out: BMD MIC): 0.25 µg/mL (≈ 0.523 µM); MIC ([7]; ATCC6633 / NRS231, read-out: BMD MIC): 0.5 µg/mL (≈ 1.05 µM); MIC [5]: 0.125 µg/mL (≈ 0.262 µM)
COc1cc(Cc2cnc(N)nc2N)cc(OC)c1OC [Trimethoprim]	–	1	32	>64	16	32	1	1	1	1	4	4	2	4	4	MIC, Survanta (5%) replicates [3, 24]: >64; MIC [3, 13]: 32 µg/mL (≈ 110 µM); MIC [4, 23]: 1 µg/mL; MIC ([4]; ATCC25922, read-out: MIC, Serum (50%), E. coli ATCC 25922, MHB + 50% (v/v) human serum, n=2 to 6, mode or median): 4 µg/mL
CC(C)[C@@H]1NC(=O)[C@H](Cc2ccc(O)cc2)NC(=O)[C@H](Cc2c[nH]c3ccccc23)NC(=O)[C@@H](NC(=O)[C@H](Cc2ccccc2)NC(=O)CN)CSSC[C@@H](C(=O)N[C@@H](CC(N)=O)C(=O)O)NC(=O)[C@H](CCCNC(=N)N)NC(=O)[C@H](CCCNC(=N)N)NC(=O)[C@H](Cc2ccc(O)cc2)NC(=O)[C@@H]2CSSC[C@H](NC1=O)C(=O)N[C@@H](C)C(=O)N[C@@H](CCCNC(=N)N)C(=O)N[C@@H](CCCNC(=N)N)C(=O)N[C@@H](CC(N)=O)C(=O)NCC(=O)N[C@@H](C)C(=O)N[C@@H](CCCNC(=N)N)C(=O)N[C@@H](C(C)C)C(=O)N2 [AA139] (HELM PEPTIDE1{G.F.C.W.Y.V.C.A.R.R.N.G.A.R.V.C.Y.R.R.C.N}$PEPTIDE1,PEPTIDE1,3:R3-20:R3|PEPTIDE1,PEPTIDE1,7:R3-16:R3$$$V2.0)	–	–	–	–	–	–	–	–	–	–	–	–	–	–	–	BMD MIC [7]: 2 µg/mL; BMD MIC [5]: 2 µg/mL; MIC, MHB ([4]; ATCC 25922): 0.125 µg/mL (≈ 0.049 µM); Agar (Noble) Dilution MIC ([6]; E. coli ATCC 25922): 8 µg/mL; Agar (Noble) Dilution MIC ([6]; E. coli AUD172): 8 µg/mL
C[C@H]1COc2c(N3CCN(C)CC3)c(F)cc3c(=O)c(C(=O)O)cn1c23 [LEV, levofloxacin, reference compound]	–	–	–	–	–	–	–	–	–	–	–	–	–	–	–	MIC ([6]; ATCC25922, read-out: Agar (Noble) Dilution MIC, E. coli ATCC 25922): 0.03 µg/mL (≈ 0.083 µM); MIC ([6]; ATCC25922, read-out: Agar (Noble) Dilution MIC, E. coli AUD172): 8 µg/mL (≈ 22.1 µM)
polymyxin B [PolymyxinB, reference compound]	4	–	–	–	–	–	–	–	–	–	–	–	–	–	–	BMD MIC [5, 25]: 4 µg/mL
